From PubChem BioAssay (NCI)
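Five compound concentrations were applied to cells in 96-well plates for 48 hours; endpoints were derived by simple linear interpolation of the resulting dose-response curve. GI50 marks 50% less growth. TGI denotes the concentration required for complete inhibition of growth.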

Experiments:
Assay in all cases: NCI anticancer screen, dose series, 48 h
MDA-MB-468 breast = test system: MDA-MB-468 breast
SK-MEL-5 melanoma = test system: SK-MEL-5 melanoma
NCI-H23 lung = test system: NCI-H23 lung
OVCAR-4 ovarian = test system: OVCAR-4 ovarian
UACC-62 melanoma = test system: UACC-62 melanoma
SF-295 CNS = test system: SF-295 CNS
K-562 leukemia = test system: K-562 leukemia
SK-OV-3 ovarian = test system: SK-OV-3 ovarian
ACHN renal = test system: ACHN renal
BT-549 breast = test system: BT-549 breast
SF-268 CNS = test system: SF-268 CNS
NCI-H522 lung = test system: NCI-H522 lung
SNB-75 CNS = test system: SNB-75 CNS
LOX IMVI melanoma = test system: LOX IMVI melanoma
HCT-116 colon = test system: HCT-116 colon
IGROV1 ovarian = test system: IGROV1 ovarian
CCRF-CEM leukemia = test system: CCRF-CEM leukemia
NCI-H460 lung = test system: NCI-H460 lung
OVCAR-8 ovarian = test system: OVCAR-8 ovarian
SK-MEL-2 melanoma = test system: SK-MEL-2 melanoma
SW-620 colon = test system: SW-620 colon
A498 renal = test system: A498 renal
M14 melanoma = test system: M14 melanoma
SNB-19 CNS = test system: SNB-19 CNS
SK-MEL-28 melanoma = test system: SK-MEL-28 melanoma
NCI/ADR-RES ovarian = test system: NCI/ADR-RES ovarian
HOP-92 NSCLC = test system: HOP-92 NSCLC
MDA-MB-231 breast = test system: MDA-MB-231 breast
KM12 colon = test system: KM12 colon
HT29 colon = test system: HT29 colon
DU-145 prostate = test system: DU-145 prostate
SF-539 CNS = test system: SF-539 CNS
SR leukemia = test system: SR leukemia
SN12C renal = test system: SN12C renal
HCC-2998 colon = test system: HCC-2998 colon
RPMI-8226 leukemia = test system: RPMI-8226 leukemia
NCI-H226 lung = test system: NCI-H226 lung
A549 NSCLC = test system: A549 NSCLC
CAKI-1 renal = test system: CAKI-1 renal
MCF7 breast = test system: MCF7 breast
OVCAR-3 ovarian = test system: OVCAR-3 ovarian
HS 578T breast = test system: HS 578T breast
MOLT-4 leukemia = test system: MOLT-4 leukemia
EKVX NSCLC = test system: EKVX NSCLC
MDA-MB-435 = test system: MDA-MB-435
HL-60(TB) leukemia = test system: HL-60(TB) leukemia
UACC-257 melanoma = test system: UACC-257 melanoma
U251 CNS = test system: U251 CNS
MALME-3M melanoma = test system: MALME-3M melanoma
OVCAR-5 ovarian = test system: OVCAR-5 ovarian
786-0 renal = test system: 786-0 renal

`CCCn1cc(-c2nc(Nc3ccc(C(=O)NCCCCNc4cccc5c4C(=O)N(C4CCC(=O)NC4=O)C5=O)cc3)nc3[nH]ccc23)cn1` (stereo not given) was tested, and the GI50 (MDA-MB-468 breast) was < 10 nM, the TGI (MDA-MB-468 breast) was < 10 nM and the GI50 (SK-MEL-5 melanoma) was 30 nM. For the same compound, the TGI (SK-MEL-5 melanoma) was 188 nM, the GI50 (NCI-H23 lung) was 18600 nM and the TGI (NCI-H23 lung) was > 100000 nM. The GI50 (OVCAR-4 ovarian) was 35.4 nM, the TGI (OVCAR-4 ovarian) was > 100000 nM and the GI50 (UACC-62 melanoma) was > 100000 nM. The TGI (UACC-62 melanoma) was > 100000 nM, the GI50 (SF-295 CNS) was 209 nM and the TGI (SF-295 CNS) was > 100000 nM. The GI50 (K-562 leukemia) was 36.8 nM, the TGI (K-562 leukemia) was > 100000 nM and the GI50 (SK-OV-3 ovarian) was 425 nM. For the same compound, the TGI (SK-OV-3 ovarian) was > 100000 nM, the GI50 (ACHN renal) was > 100000 nM and the TGI (ACHN renal) was > 100000 nM. The GI50 (BT-549 breast) was < 10 nM, the TGI (BT-549 breast) was < 10 nM and the GI50 (SF-268 CNS) was 25.7 nM. For the same compound, the TGI (SF-268 CNS) was > 100000 nM, the GI50 (NCI-H522 lung) was > 100000 nM and the TGI (NCI-H522 lung) was > 100000 nM. The GI50 (SNB-75 CNS) was < 10 nM, the TGI (SNB-75 CNS) was 2060 nM and the GI50 (LOX IMVI melanoma) was > 100000 nM. For the same compound, the TGI (LOX IMVI melanoma) was > 100000 nM, the GI50 (HCT-116 colon) was 27400 nM and the TGI (HCT-116 colon) was > 100000 nM. For the same compound, the GI50 (IGROV1 ovarian) was 11.7 nM, the TGI (IGROV1 ovarian) was > 100000 nM and the GI50 (CCRF-CEM leukemia) was < 10 nM. The TGI (CCRF-CEM leukemia) was < 10 nM, the GI50 (NCI-H460 lung) was > 100000 nM and the TGI (NCI-H460 lung) was > 100000 nM. For the same compound, the GI50 (OVCAR-8 ovarian) was < 10 nM, the TGI (OVCAR-8 ovarian) was > 100000 nM and the GI50 (SK-MEL-2 melanoma) was 53.6 nM. The TGI (SK-MEL-2 melanoma) was > 100000 nM, the GI50 (SW-620 colon) was < 10 nM and the TGI (SW-620 colon) was > 100000 nM. The GI50 (A498 renal) was 157 nM, the TGI (A498 renal) was > 100000 nM and the GI50 (M14 melanoma) was 81.7 nM. The TGI (M14 melanoma) was > 100000 nM, the GI50 (SNB-19 CNS) was < 12.4 nM and the TGI (SNB-19 CNS) was > 100000 nM. The GI50 (SK-MEL-28 melanoma) was 123 nM, the TGI (SK-MEL-28 melanoma) was > 100000 nM and the GI50 (NCI/ADR-RES ovarian) was > 100000 nM. The TGI (NCI/ADR-RES ovarian) was > 100000 nM, the GI50 (HOP-92 NSCLC) was < 10 nM and the TGI (HOP-92 NSCLC) was < 10 nM. For the same compound, the GI50 (MDA-MB-231 breast) was < 10 nM, the TGI (MDA-MB-231 breast) was < 10 nM and the GI50 (KM12 colon) was 37.4 nM. The TGI (KM12 colon) was > 100000 nM, the GI50 (HT29 colon) was 166 nM and the TGI (HT29 colon) was > 100000 nM. The GI50 (DU-145 prostate) was > 100000 nM, the TGI (DU-145 prostate) was > 100000 nM and the GI50 (SF-539 CNS) was 67.6 nM. The TGI (SF-539 CNS) was > 100000 nM, the GI50 (SR leukemia) was 319 nM and the TGI (SR leukemia) was > 100000 nM. The GI50 (SN12C renal) was 16.6 nM, the TGI (SN12C renal) was > 100000 nM and the GI50 (HCC-2998 colon) was < 10 nM. The TGI (HCC-2998 colon) was > 100000 nM, the GI50 (RPMI-8226 leukemia) was 157 nM and the TGI (RPMI-8226 leukemia) was > 100000 nM. The GI50 (NCI-H226 lung) was 31.9 nM, the TGI (NCI-H226 lung) was > 100000 nM and the GI50 (A549 NSCLC) was 119 nM. For the same compound, the TGI (A549 NSCLC) was > 100000 nM, the GI50 (CAKI-1 renal) was 190 nM and the TGI (CAKI-1 renal) was > 100000 nM. The GI50 (MCF7 breast) was 33.9 nM, the TGI (MCF7 breast) was > 100000 nM and the GI50 (OVCAR-3 ovarian) was 424 nM. For the same compound, the TGI (OVCAR-3 ovarian) was > 100000 nM, the GI50 (HS 578T breast) was < 10 nM and the TGI (HS 578T breast) was > 100000 nM. The GI50 (MOLT-4 leukemia) was < 10 nM, the TGI (EKVX NSCLC) was > 100000 nM and the GI50 (MDA-MB-435) was 68.6 nM. For the same compound, the TGI (MDA-MB-435) was > 100000 nM, the GI50 (HL-60(TB) leukemia) was < 10 nM and the TGI (HL-60(TB) leukemia) was 516 nM. The GI50 (UACC-257 melanoma) was > 100000 nM, the TGI (UACC-257 melanoma) was > 100000 nM and the GI50 (U251 CNS) was 589 nM. The TGI (U251 CNS) was > 100000 nM, the GI50 (MALME-3M melanoma) was < 10 nM and the TGI (MALME-3M melanoma) was < 10 nM. The GI50 (OVCAR-5 ovarian) was 243 nM, the TGI (OVCAR-5 ovarian) was > 100000 nM and the GI50 (786-0 renal) was 136 nM. For the same compound, the TGI (786-0 renal) was > 100000 nM.
